In brackets after ≈: the same amount, converted by molar mass. Like-named read-outs stand apart in the source and are kept apart here.
Columns and labels:
[1] = system: Bacillus subtilis (CMCC 63501); assay: Antibacterial assay, microbroth dilution MIC; assay type: cell-based; settings: for MIC: Bacillus subtilis, read-out: MIC B. subtilis
Source text: (§1) The antibacterial activity of NO donor/enmein-type ent-kauranoid hybrids 9a–i against the Gram-negative bacterium Escherichia coli (ATCC 25922), Gram-positive bacterium Staphylococcus aureus (ATCC 29213) and Bacillus subtilis (CMCC 63501), and the fungus Monilia albicans (ATCC 10231) was first disclosed and summarized in Table 1. […] Thus, the introduction of NO-donor substituent groups at the 14-position of enmein-type 6,7-seco-ent-kauranoid could improve antimicrobial activity against S. aureus and B. subtilis.
(§2) The minimal inhibitory concentrations (MICs) were carried out by microbroth dilution method described by the Clinical Laboratory Standards Institute. A stock solution of all the target compounds was prepared with DMSO-medium (1:2), and then graded quantities of the test compounds were diluted with medium. The specified concentration suspension of fungus and bacterium contained approximately 10^3, and 10^5 CFU/mL was added into microtitration plates. The inoculated 96-well plates were incubated at 35 °C for 18 h. MIC was defined as the lowest concentrations that prevented visible growth of the bacteria.

[2] = system: Escherichia coli (ATCC 25922); assay: Antibacterial assay, microbroth dilution MIC; assay type: cell-based; settings: for MIC: Escherichia coli, read-out: MIC E. coli
Source text: as §1, §2

[3] = system: Staphylococcus aureus (ATCC 29213); assay: Antibacterial assay, microbroth dilution MIC; assay type: cell-based; settings: for MIC: Staphylococcus aureus, read-out: MIC S. aureus
Source text: as §1, §2

[4] = system: Monilia albicans (ATCC 10231); assay: Antifungal assay, microbroth dilution MIC; assay type: cell-based; settings: Candida albicans, read-out: MIC M. albicans
Source text: as §1, §2

[5] = system: Bel-7402 hepatoma cell line; assay: MTT antiproliferative assay; assay type: cell-based, human; settings: for IC50: Homo sapiens, read-out: IC50 Bel-7402; for SI (selectivity index): SI = IC50, L-02/IC50, Bel-7402
Experimental: (§3) The antiproliferative activity of 9a–i against four human cancer cell lines K562 leukemia cell line, MGC-803 gastric cancer cell line, CaEs-17 esophageal cancer cell line, and Bel-7402 hepatoma cell line, and human normal liver cells L-02 was evaluated by MTT assay (Table 2).
(§4) MTT assay was developed to monitor mammalian cell survival and proliferation in vitro [32]. CaEs-17 cells (K562, Bel-7402 and MGC-803 cells) from American Type Culture Collection (ATCC, Manassas, VA, USA) were cultivated in RPMI-1640 medium supplemented with 5% fetal bovine serum (v/v), 100 U/mL penicillin, and […] streptomycin. Cells (5 × 10^4 cell/mL) at the log phase of their growth cycle were added to each well of a 96-well plate (100 µL/well) and incubated for 24 h at 37 °C in a humidified atmosphere of 5% CO2. Then, cells were treated with or without test compounds in different concentrations. After 72 h, 5 mg/mL MTT solution (20 µL per well) was added. Cells were incubated at 37 °C. After 4 h, MTT solution was removed and DMSO was added to each well (150 µL). Ten minutes later at room temperature, the optical density (OD) values were measured at the wavelength of 490 nm on a Microplate Reader NO. 550 (BIO-RAD Instruments Inc., Hercules, CA, USA). In this experiment, 10 µg/mL of Taxol was used as the positive control and 0.1% DMSO was used as the negative reference.

K562 leukemia cell line = assay: MTT antiproliferative assay; assay type: cell-based, human; settings: Homo sapiens, K562, 72 h, read-out: IC50 K562
Experimental: as §3, §4

[6] = system: MGC-803 gastric cancer cell line; assay: MTT antiproliferative assay; assay type: cell-based, human; settings: Homo sapiens, MGC-803, 72 h, read-out: IC50 MGC-803
Experimental: as §3, §4

[7] = system: CaEs-17 esophageal cancer cell line; assay: MTT antiproliferative assay; assay type: cell-based; settings: Homo sapiens, read-out: IC50 CaEs-17
Experimental: as §3, §4

[8] = system: human normal liver cells L-02; assay: MTT assay on normal cells; assay type: cell-based; settings: 72 h, read-out: IC50 L-02
Experimental: as §3, §4

[9] = Bel-7402, MTT, 72 h, mean ± SD of three experiments
[10] = MTT, 72 h, mean ± SD of three experiments
[11] = CaEs17, MTT, 72 h, mean ± SD of three experiments
[12] = MTT, normal liver cells, mean ± SD of three experiments

Row | SMILES | MIC ([1]; CMCC63501, 35 °C, 18 h) | MIC ([2]; ATCC25922, 35 °C, 18 h) | MIC ([3]; ATCC29213, 35 °C, 18 h) | MIC ([4]; ATCC10231, 35 °C, 18 h) | IC50 [5, 9] | IC50 (K562 leukemia cell line; [10]) | IC50 [6, 10] | IC50 [7, 11] | melting point | SI (selectivity index) [5] | IC50 [8, 12] | also measured
1 | O=C(N[C@H](CO)[C@H](O)c1ccc([N+](=O)[O-])cc1)C(Cl)Cl [Chloromycetin, reference compound] | – | – | – | – | – | – | – | – | – | – | – | MIC B. subtilis ([1]; 35 °C, 18 h): 8 µg/mL (≈ 24.8 µM); MIC E. coli ([2]; 35 °C, 18 h): 4 µg/mL (≈ 12.4 µM); MIC S. aureus ([3]; 35 °C, 18 h): 4 µg/mL (≈ 12.4 µM)
2 | C=C1C(=O)[C@]23[C@H](O)[C@H]1CC[C@H]2[C@@]12CO[C@]3(O)[C@@H](O)[C@@H]1C(C)(C)CC[C@@H]2O [Compound 7, oridonin, reference compound] | 32 µg/mL (≈ 87.8 µM) | > 100 µg/mL | 32 µg/mL (≈ 87.8 µM) | > 100 µg/mL | 7.48 ± 0.53 µM | 4.76 ± 0.32 µM | 5.69 ± 0.39 µM | 11 ± 1.02 µM | – | 2.4 | 18.3 ± 0.81 µM | –
3 | C=C1C(=O)[C@@]23C(=O)O[C@H]4CCC(C)(C)[C@H]5[C@H](O)OC[C@@]45[C@@H]2CC[C@@H]1[C@H]3O [Compound 8] | – | – | – | – | – | – | – | – | – | – | – | MIC ([1]; CMCC63501, 18 h): > 100 µg/mL; MIC ([2]; ATCC25922, 18 h): > 100 µg/mL; MIC ([3]; ATCC29213, 18 h): > 100 µg/mL; MIC ([4]; ATCC10231, 18 h): > 100 µg/mL; IC50 ([5]; Bel-7402, 72 h): 33 ± 2.19 µM; IC50 (K562 leukemia cell line): 8.11 ± 0.76 µM; IC50 [6]: 14.2 ± 1.22 µM; IC50 ([7]; CaEs17, 72 h): 30.8 ± 2.09 µM; IC50 [8]: 24.4 ± 1.59 µM
4 | OC(Cn1cncn1)(Cn1cncn1)c1ccc(F)cc1F [Fluconazole, reference compound] | – | – | – | 4 µg/mL (≈ 13.1 µM) | – | – | – | – | – | – | – | –
5 | CC(=O)O[C@H]1C(=O)[C@@]2(C)[C@H]([C@H](OC(=O)c3ccccc3)[C@]3(O)C[C@H](OC(=O)[C@H](O)[C@@H](NC(=O)c4ccccc4)c4ccccc4)C(C)=C1C3(C)C)[C@]1(OC(C)=O)CO[C@@H]1C[C@@H]2O [Taxol, reference compound] | – | – | – | – | 1.89 ± 0.09 µM | 0.41 ± 0.02 µM | 0.85 ± 0.06 µM | 0.43 ± 0.03 µM | – | 1.9 | 3.73 ± 0.17 µM | –

Further lines, with some results ahead:

Row | MIC ([1]; CMCC63501, 35 °C, 18 h) | MIC ([2]; ATCC25922, 35 °C, 18 h) | MIC ([3]; ATCC29213, 35 °C, 18 h) | MIC ([4]; ATCC10231, 35 °C, 18 h) | IC50 [5, 9] | IC50 (K562 leukemia cell line; [10]) | IC50 [6, 10] | IC50 [7, 11] | melting point | SMILES | SI (selectivity index) [5] | IC50 [8, 12] | also measured
6 | 64 µg/mL (≈ 87.6 µM) | > 100 µg/mL | 16 µg/mL (≈ 21.9 µM) | > 100 µg/mL | 1.33 ± 0.1 µM | 2.47 ± 0.16 µM | 1.83 ± 0.16 µM | 5.12 ± 0.42 µM | 92 to 94 °C | C=C1C(=O)[C@@]23C(=O)O[C@H]4CCC(C)(C)[C@H]5[C@H](O)OC[C@@]45[C@@H]2CC[C@@H]1[C@H]3OC(=O)CCC(=O)OCCOc1no[n+]([O-])c1S(=O)(=O)c1ccccc1 [Compound 9a] | 7.7 | 10.4 ± 0.61 µM | –
7 | 2 µg/mL (≈ 2.69 µM) | > 100 µg/mL | 4 µg/mL (≈ 5.37 µM) | > 100 µg/mL | 1.2 ± 0.08 µM | 2.31 ± 0.21 µM | 1.62 ± 0.08 µM | 4.83 ± 0.3 µM | 88 to 89 °C | C=C1C(=O)[C@@]23C(=O)O[C@H]4CCC(C)(C)[C@H]5[C@H](O)OC[C@@]45[C@@H]2CC[C@@H]1[C@H]3OC(=O)CCCC(=O)OCCOc1no[n+]([O-])c1S(=O)(=O)c1ccccc1 [Compound 9b] | 13.9 | 16.7 ± 0.17 µM | –
8 | 4 µg/mL (≈ 5.14 µM) | > 100 µg/mL | 8 µg/mL (≈ 10.3 µM) | > 100 µg/mL | 0.83 ± 0.06 µM | 1.93 ± 0.1 µM | 1.34 ± 0.13 µM | 3.76 ± 0.37 µM | 137 to 139 °C | C=C1C(=O)[C@@]23C(=O)O[C@H]4CCC(C)(C)[C@H]5[C@H](O)OC[C@@]45[C@@H]2CC[C@@H]1[C@H]3OC(=O)c1ccccc1C(=O)OCCOc1no[n+]([O-])c1S(=O)(=O)c1ccccc1 [Compound 9c] | 23.9 | 19.87 ± 0.18 µM | –
9 | 2 µg/mL (≈ 2.69 µM) | > 100 µg/mL | 4 µg/mL (≈ 5.37 µM) | > 100 µg/mL | 1.23 ± 0.08 µM | 2.15 ± 0.12 µM | 1.5 ± 0.1 µM | 4.98 ± 0.42 µM | 110 to 112 °C | C=C1C(=O)[C@@]23C(=O)O[C@H]4CCC(C)(C)[C@H]5[C@H](O)OC[C@@]45[C@@H]2CC[C@@H]1[C@H]3OC(=O)CCC(=O)OCCCOc1no[n+]([O-])c1S(=O)(=O)c1ccccc1 [Compound 9d] | 11.0 | 13.6 ± 1.31 µM | –
10 | 16 µg/mL (≈ 21.1 µM) | > 100 µg/mL | 16 µg/mL (≈ 21.1 µM) | > 100 µg/mL | 0.92 ± 0.05 µM | 1.92 ± 0.09 µM | 1.29 ± 0.12 µM | 4.27 ± 0.35 µM | 82 to 84 °C | C=C1C(=O)[C@@]23C(=O)O[C@H]4CCC(C)(C)[C@H]5[C@H](O)OC[C@@]45[C@@H]2CC[C@@H]1[C@H]3OC(=O)CCCC(=O)OCCCOc1no[n+]([O-])c1S(=O)(=O)c1ccccc1 [Compound 9e] | 18.6 | 17.2 ± 0.77 µM | –
11 | 16 µg/mL (≈ 21.1 µM) | > 100 µg/mL | 16 µg/mL (≈ 21.1 µM) | > 100 µg/mL | 1.27 ± 0.11 µM | 2.26 ± 0.08 µM | 1.43 ± 0.08 µM | 5.13 ± 0.22 µM | 85 to 87 °C | C=C1C(=O)[C@@]23C(=O)O[C@H]4CCC(C)(C)[C@H]5[C@H](O)OC[C@@]45[C@@H]2CC[C@@H]1[C@H]3OC(=O)CCC(=O)OCCCCOc1no[n+]([O-])c1S(=O)(=O)c1ccccc1 [Compound 9g] | 9.1 | 11.6 ± 0.39 µM | –
12 | 16 µg/mL (≈ 20.7 µM) | > 100 µg/mL | 16 µg/mL (≈ 20.7 µM) | > 100 µg/mL | 1.08 ± 0.05 µM | 2.11 ± 0.16 µM | 1.49 ± 0.11 µM | 4.68 ± 0.31 µM | 78 to 80 °C | C=C1C(=O)[C@@]23C(=O)O[C@H]4CCC(C)(C)[C@H]5[C@H](O)OC[C@@]45[C@@H]2CC[C@@H]1[C@H]3OC(=O)CCCC(=O)OCCCCOc1no[n+]([O-])c1S(=O)(=O)c1ccccc1 [Compound 9h] | 11.1 | 12.1 ± 1.08 µM | –
